Active and inactive are the calls of the source. The rule behind the calls is not given here.
Legend:
[1] = target: T1, PML-RARalpha (Homo sapiens) (UniProt P10276+P29590); assay: Induction of PML/RARalpha degradation in human NB4 cells assessed as downregulation of P2RY2 mRNA expression incubated for 1 hrs followed by replacement with fresh culture medium for 6 hrs by RT-qPCR analysis; type: cell-based; conditions: dose 0.3-3 µM
U-937 [2] = assay: Induction of cell cycle arrest in human U-937 cells harboring p53-V272M mutant at 0.5 to 8 uM pretreated for 1 hr followed by culturing in fresh medium for 24 hrs by RNase/PI staining based flow cytometry analysis; type: functional; conditions: dose 0.5-8 µM
[3] = Toxicity in M-NSG mouse xenografted with human U-937 cells harboring p53 V272M mutant assessed as reduction in body weight at 25 mg/kg, ip administered for 11 days and measured on day 18; type: organism-based; conditions: in vivo, 432 h, time 18 day
[4] = Drug uptake in human HepG2 cells assessed as arsenic localization in cytoplasm at 10 uM incubated for 1 hr by ICP-MS analysis; type: ADME, cell-based; conditions: hepg2, 1 h
U-937 [5] = assay: Induction of intrinsic apoptosis in human U-937 cells overexpressing p53-V272M mutant assessed as upregulation of PUMA gene expression by RT-qPCR analysis; type: functional, cell-based
[6] = target: T1, PML-RARalpha (Homo sapiens); assay: Induction of PML/RARalpha degradation in human NB4 cells assessed as downregulation of FCGR1B mRNA expression incubated for 1 hrs followed by replacement with fresh culture medium for 6 hrs by RT-qPCR analysis; type: cell-based; conditions: dose 0.3-3 µM
[7] = system: Cellular tumor antigen p53 (Homo sapiens), P04637 [V272M]; assay: Restoration of p53-V272M mutant transcriptional activity on PUMA promoter in human NCI-H1299 cells at 2.5 to 10 uM pretreated with methyl-beta-cyclodextrin for 30 mins followed by compound addition for 10 mins and further incubation in fresh medium for 24 hrs by firefly/renilla based luciferase reporter assay; type: cell-based; conditions: dose 2.5-10 µM
[8] = Drug uptake in human HepG2 cells assessed as fold increase in arsenic accumulation at 10 uM incubated for 10 mins by ICP-MS analysis; type: ADME, cell-based; conditions: hepg2, 10 min
NB-4 [9] = assay: Induction of apoptosis in human NB4 cells assessed as necrotic cells at 3 uM preincubated for 1 hrs followed by replacement with fresh culture medium and measured after 24 hrs by Annexin V-FITC/7AAD staining based flow cytometry assay (reference value: 0.16%); type: functional
[10] = target: T1, PML-RARalpha (Homo sapiens); assay: Induction of PML/RARalpha degradation in human NB4 cells assessed as residual protein level at 1 uM incubated for 1 hrs followed by replacement with fresh culture medium and measured after 16 hrs by Western blot analysis (reference value: 1); type: cell-based
NCI-H1299 [11] = assay: Upregulation of MDM2 mRNA expression in human NCI-H1299 cells overexpressing p53-V272M mutant at 2 uM pretreated for 1 hr followed by culturing in fresh medium for 8 hrs by RT-qPCR analysis; type: functional, cell-based
U-937 [12] = assay: Induction of extrinsic apoptosis in human U-937 cells overexpressing p53-V272M mutant assessed as upregulation of DR5 gene expression by RT-qPCR analysis; type: functional, cell-based
U-937 [13] = assay: Cytotoxicity against p53 null human U-937 cells harboring empty vector incubated for 48 hrs by CCK-8 assay; type: functional, cell-based; conditions: U-937, 48 h
U-937 [14] = assay: Upregulation of MDM2 mRNA expression in human U-937 cells overexpressing p53-V272M mutant pretreated for 1 hr followed by culturing in fresh medium for 4 hrs by RT-qPCR analysis; type: functional, cell-based
U-937 [15] = assay: Induction of senescence in human U-937 cells overexpressing p53-V272M mutant assessed as upregulation of PML gene expression by RT-qPCR analysis; type: functional, cell-based
NB-4 [16] = assay: Induction of apoptosis in human NB4 cells assessed as early apoptotic cells at 3 uM preincubated for 1 hrs followed by replacement with fresh culture medium and measured after 24 hrs by Annexin V-FITC/7AAD staining based flow cytometry assay (reference value: 2.15%); type: functional
NB-4 [17] = assay: Induction of apoptosis in human NB4 cells assessed as necrotic cells at 9 uM preincubated for 1 hrs followed by replacement with fresh culture medium and measured after 24 hrs by Annexin V-FITC/7AAD staining based flow cytometry assay (reference value: 0.16%); type: functional
U-937 [18] = assay: Induction of cell cycle arrest in human U-937 cells overexpressing p53-V272M mutant assessed as upregulation of BTG2 gene expression by RT-qPCR analysis; type: functional, cell-based
[19] = system: Cellular tumor antigen p53 (Homo sapiens), P04637 [V272M]; assay: Restoration of p53-V272M mutant transcriptional activity on PUMA promoter in human NCI-H1299 cells harboring siRNA-mediated CKAP4 knockdown incubated for 24 hrs by firefly/renilla based luciferase reporter assay; type: cell-based
NB-4 [20] = assay: Induction of apoptosis in human NB4 cells assessed as late apoptotic cells at 9 uM preincubated for 1 hrs followed by replacement with fresh culture medium and measured after 24 hrs by Annexin V-FITC/7AAD staining based flow cytometry assay (reference value: 3.71%); type: functional
[21] = Drug accumulation in ICR mouse liver at 10 mg/kg, iv measured upto 24 hrs by ICP-MS analysis; type: ADME, organism-based; conditions: in vivo
NB-4 [22] = assay: Induction of granulocytic differentiation in human NB4 cells assessed as CD11b positive cells at 3 uM incubated for 1 hrs followed by replacement with fresh culture medium for 48 hrs by flow cytometry analysis relative to control; type: functional
U-937 [23] = assay: Induction of senescence in human U-937 cells overexpressing p53-V272M mutant assessed as upregulation of CDKN1A gene expression by RT-qPCR analysis; type: functional, cell-based
[24] = system: Cellular tumor antigen p53 (Homo sapiens), P04637 [V272M]; assay: Restoration of p53-V272M mutant transcriptional activity on PUMA promoter in human NCI-H1299 cells harboring siRNA-mediated CLIC1 knockdown incubated for 24 hrs by firefly/renilla based luciferase reporter assay; type: cell-based
U-937 [25] = assay: Induction of intrinsic apoptosis in human U-937 cells overexpressing p53-V272M mutant assessed as upregulation of BAX gene expression by RT-qPCR analysis; type: functional, cell-based
NCI-H1299 [26] = assay: Upregulation of p21 protein expression in human NCI-H1299 cells overexpressing p53-V272M mutant pretreated for 1 hr followed by culturing in fresh medium for 16 hrs by Western blot analysis; type: functional, cell-based
[27] = Drug uptake in human HepG2 cells at 1 to 10 uM incubated for 5 mins at 4 degreeC by ICP-MS analysis; type: ADME, cell-based; conditions: hepg2, 5 min, dose 1-10 µM
[28] = system: Cellular tumor antigen p53 (Homo sapiens), P04637 [V272M]; assay: Thermostabilization of recombinant p53 V272M mutant (unknown origin) […] assessed as increase in melting temperature at 1:15 ratio in HEPES at pH 7.5 by DSF analysis
HL-60 = assay: Upregulation of CDKN1A mRNA expression in human HL-60 cells overexpressing p53-V272M mutant at 2 uM pretreated for 1 hr followed by culturing in fresh medium for 8 hrs by RT-qPCR analysis; type: functional, cell-based
NCI-H1299 [29] = assay: Upregulation of CDKN1A mRNA expression in human NCI-H1299 cells overexpressing p53-V272M mutant at 2 uM pretreated for 1 hr followed by culturing in fresh medium for 8 hrs by RT-qPCR analysis; type: functional, cell-based
U-937 [30] = assay: Antitumor activity against human U-937 cells harboring p53-V272M mutant xenografted in NSG mouse assessed as delay in tumor progression at 10 mg/kg, iv administered for 9 days by bioluminescence imaging based luciferase analysis; type: functional, organism-based; conditions: time 9.0 day
U-937 [31] = assay: Induction of cell cycle arrest in human U-937 cells overexpressing p53-V272M mutant assessed as upregulation of GADD45A gene expression by RT-qPCR analysis; type: functional, cell-based

T1 sequence (P10276 whole entry, looked up): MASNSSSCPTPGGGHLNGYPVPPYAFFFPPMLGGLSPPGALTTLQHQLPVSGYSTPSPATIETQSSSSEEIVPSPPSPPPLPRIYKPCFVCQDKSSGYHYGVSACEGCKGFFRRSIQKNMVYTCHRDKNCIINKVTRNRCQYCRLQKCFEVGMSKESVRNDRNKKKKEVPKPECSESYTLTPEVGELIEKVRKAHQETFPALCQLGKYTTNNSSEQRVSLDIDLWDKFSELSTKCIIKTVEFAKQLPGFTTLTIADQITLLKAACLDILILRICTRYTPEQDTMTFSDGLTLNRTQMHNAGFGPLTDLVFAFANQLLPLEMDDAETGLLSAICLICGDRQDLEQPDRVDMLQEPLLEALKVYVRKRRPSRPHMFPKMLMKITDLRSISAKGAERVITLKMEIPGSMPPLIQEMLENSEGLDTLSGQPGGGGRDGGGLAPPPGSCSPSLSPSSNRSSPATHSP
T1 sequence (P29590 whole entry, looked up): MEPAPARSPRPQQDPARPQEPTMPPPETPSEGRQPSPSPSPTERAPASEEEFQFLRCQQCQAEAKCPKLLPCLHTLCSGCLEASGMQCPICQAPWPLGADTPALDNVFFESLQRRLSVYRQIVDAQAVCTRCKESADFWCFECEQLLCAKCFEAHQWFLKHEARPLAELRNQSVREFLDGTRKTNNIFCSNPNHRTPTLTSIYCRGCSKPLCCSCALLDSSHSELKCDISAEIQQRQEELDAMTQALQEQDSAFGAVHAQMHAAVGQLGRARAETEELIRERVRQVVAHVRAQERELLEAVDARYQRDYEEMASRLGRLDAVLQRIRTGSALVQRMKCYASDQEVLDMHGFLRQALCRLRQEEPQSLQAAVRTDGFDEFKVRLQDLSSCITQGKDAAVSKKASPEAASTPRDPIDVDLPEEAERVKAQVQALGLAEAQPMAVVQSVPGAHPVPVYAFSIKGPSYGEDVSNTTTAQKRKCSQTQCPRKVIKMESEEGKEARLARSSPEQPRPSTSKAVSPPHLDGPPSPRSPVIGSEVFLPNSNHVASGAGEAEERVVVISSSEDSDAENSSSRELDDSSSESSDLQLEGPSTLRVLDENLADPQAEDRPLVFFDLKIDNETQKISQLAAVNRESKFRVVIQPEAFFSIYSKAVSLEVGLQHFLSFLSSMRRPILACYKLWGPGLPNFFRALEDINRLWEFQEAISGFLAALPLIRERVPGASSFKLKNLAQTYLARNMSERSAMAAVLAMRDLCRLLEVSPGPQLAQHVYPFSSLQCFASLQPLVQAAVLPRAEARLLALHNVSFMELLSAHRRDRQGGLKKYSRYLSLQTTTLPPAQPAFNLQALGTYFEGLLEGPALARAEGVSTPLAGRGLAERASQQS

## CC(=O)OC[C@H]1O[C@@H](S[As]2SCCS2)[C@H](OC(C)=O)[C@@H](OC(C)=O)[C@@H]1OC(C)=O
[1]
  Activity: Dose-Dependent Effect
U-937 [2]
  Activity: Active
[3]
  Activity: Non-Toxic
[4]
  Drug uptake: Active
U-937 [5]
  Activity: Active
[6]
  Activity: Dose-Dependent Effect
[7]
  Activity: inactive
[8]
  fold change (FC): 19
NB-4 [9]
  Activity: 0.27%
[10]
  Activity: 0.26
NCI-H1299 [11]
  Activity: Active
U-937 [12]
  Activity: Active
U-937 [13]
  IC50: 2100 nM
U-937 [14]
  Activity: Active
U-937 [15]
  Activity: inactive
NB-4 [16]
  Activity: 4.21%
NB-4 [17]
  Activity: 0.26%
U-937 [18]
  Activity: Active
[19]
  Activity: inactive
NB-4 [20]
  Activity: 6.71%
[21]
  Drug uptake: Active
NB-4 [22]
  Activity: 32.9%
U-937 [23]
  Activity: Active
[24]
  Activity: inactive
U-937 [25]
  Activity: Active
NCI-H1299 [26]
  Activity: Active
[27]
  Drug uptake: Not Active
[28]
  Activity: inactive
HL-60
  Activity: Active
NCI-H1299 [29]
  Activity: Active
U-937 [30]
  Activity: Active
U-937 [31]
  Activity: Active
